Data: ChEMBL document CHEMBL3244201, “Synthesis and specific pressor activity of [1-aspartic acid,5-valine,9-serine]angiotensin I ("fowl angiotensin I")” (1977)

Tests used:
Assay type in all cases: functional
Rattus norvegicus [1] = species on record: Rattus norvegicus; experiment: Pressor activity in rat assessed as weight basis relative to mammalian [Ile5]angiotensin 2
Rattus norvegicus [2] = species on record: Rattus norvegicus; experiment: Pressor activity in rat assessed as weight basis relative to mammalian [Val5]angiotensin 2
Rattus norvegicus [3] = species on record: Rattus norvegicus; experiment: Pressor activity in rat assessed as weight basis relative to mammalian [Ile5]angiotensin 1
Rattus norvegicus [4] = species on record: Rattus norvegicus; experiment: Pressor activity in rat assessed as molar basis relative to mammalian [Ile5]angiotensin 1
Rattus norvegicus [5] = species on record: Rattus norvegicus; experiment: Pressor activity in rat assessed as weight basis relative to mammalian [Val5]angiotensin 1
Rattus norvegicus [6] = species on record: Rattus norvegicus; experiment: Pressor activity in rat assessed as molar basis relative to mammalian [Val5]angiotensin 1
Rattus norvegicus [7] = species on record: Rattus norvegicus; experiment: Pressor activity in rat assessed as molar basis relative to mammalian [Ile5]angiotensin 2
Rattus norvegicus [8] = species on record: Rattus norvegicus; experiment: Pressor activity in rat assessed as molar basis relative to mammalian [Val5]angiotensin 2
Rattus norvegicus [9] = species on record: Rattus norvegicus; experiment: Pressor activity in ganglion-blocked vagotomized rat assessed as weight basis relative to mammalian [Ile5]angiotensin 2

Molecule	Activity (Rattus norvegicus [1]) [%]	Activity (Rattus norvegicus [2]) [%]	Activity (Rattus norvegicus [3]) [%]	Activity (Rattus norvegicus [4]) [%]	Activity (Rattus norvegicus [5]) [%]	Activity (Rattus norvegicus [6]) [%]	Activity (Rattus norvegicus [7]) [%]	Activity (Rattus norvegicus [8]) [%]	Activity (Rattus norvegicus [9]) [%]
CC[C@H](C)[C@H](NC(=O)[C@H](Cc1ccc(O)cc1)NC(=O)[C@@H](NC(=O)[C@H](CCCNC(=N)N)NC(=O)[C@@H](N)CC(=O)O)C(C)C)C(=O)N[C@@H](Cc1cnc[nH]1)C(=O)N1CCC[C@H]1C(=O)N[C@@H](Cc1ccccc1)C(=O)O [ANGIOTENSIN II]	100	73.5							
H-DRVYIHPFHL-OH	58.6	43.1							
H-DRVYVHPF-OH [[Val5] - ANGIOTENSIN II]	136	100							
H-DRVYVHPFHL-OH	51.5	37.8							
H-DRVYVHPFSL-OH	94.1	69.2	160.4	157	182.8	180.8	114.4	85.1	91.2
